From patent US9765016B2, “S1P modulating agents” (BIOGEN MA INC., priority 2013, dated 2017)

Target: T1, human S1P5 (Homo sapiens, UniProt Q9H228)
T1 construct: host or cells: recombinant CHEM cells
Assay: Calcium flux assay, antagonist assay format (S1P receptor activity assay)
Format: cell-based
Procedure: Agonist percentage activation determinations were obtained by assaying sample compounds and referencing the Emax control for each receptor profiled. Antagonist percentage inhibition determinations were obtained by assaying sample compounds and referencing the control EC80 wells for each receptor profiled.
Sample compounds were plated in an eight-point, four-fold dilution series in duplicate with a top concentration of 10 μM. The concentrations described here reflect the final concentration of the compounds during the antagonist assay.
Using the EC80 values determined during the agonist assay, stimulated all pre-incubated sample compound and reference antagonist (if applicable) wells with EC80 of reference agonist.

T1 sequence (Q9H228 whole entry): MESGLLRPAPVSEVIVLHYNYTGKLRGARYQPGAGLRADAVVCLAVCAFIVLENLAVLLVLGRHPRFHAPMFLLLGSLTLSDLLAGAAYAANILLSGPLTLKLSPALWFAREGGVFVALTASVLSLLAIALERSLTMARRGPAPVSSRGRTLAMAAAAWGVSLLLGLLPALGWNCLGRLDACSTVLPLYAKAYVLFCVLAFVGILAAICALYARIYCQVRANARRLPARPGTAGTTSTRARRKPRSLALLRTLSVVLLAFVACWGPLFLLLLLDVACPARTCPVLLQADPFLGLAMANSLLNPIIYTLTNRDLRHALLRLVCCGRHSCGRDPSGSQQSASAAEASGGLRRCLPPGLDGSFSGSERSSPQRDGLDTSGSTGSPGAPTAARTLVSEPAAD

Cc1cc(O[C@H]2CC[C@@H]([Si](C)(C)C)CC2)c(CN2CCC(C(=O)O)CC2)c2ccccc12 [Example 25, 1-((4-methyl-2-((cis-4-(trimethylsilyl)cyclohexyl)oxy)naphthalen-1-yl)methyl)piperidine-4-carboxylic acid]
IC50: ≤ 100 nM
